Read-outs that look alike come from different tables or passages of the source.
Experiments:
EGFR del19/T790M/C797S = EGFR del19/T790M/C797S (Homo sapiens, UniProt P00533, C797S/DEL746-750/T790M); assay: Biochemical EGFR kinase assay (Lance Ultra TR-FRET), triple mutant del19/T790M/C797S
Summary of the method: (§1)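 In this biochemical assay, phosphorylation after a one-hour room-temperature reaction was detected with europium-labelled anti-phosphopeptide antibody at 2 nM final concentration.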

EGFR L858R/T790M/C797S = EGFR L858R/T790M/C797S (Homo sapiens, UniProt P00533, C797S/L858R/T790M); assay: Biochemical EGFR kinase assay (Lance Ultra TR-FRET), triple mutant L858R/T790M/C797S
Summary of the method: as §1

EGFR del19/C797S = EGFR del19/C797S (Homo sapiens, UniProt P00533, C797S/DEL746-750); assay: Biochemical EGFR kinase assay (Lance Ultra TR-FRET), double mutant del19/C797S
Summary of the method: as §1

EGFR L858R/C797S = EGFR L858R/C797S (Homo sapiens, UniProt P00533, C797S/L858R); assay: Biochemical EGFR kinase assay (Lance Ultra TR-FRET), double mutant L858R/C797S
Summary of the method: as §1

EGFR wildtype (WT) = EGFR wildtype (WT) (Homo sapiens, UniProt P00533); assay: Biochemical EGFR kinase assay (Lance Ultra TR-FRET), wildtype
Summary of the method: as §1

[1] = Km ATP, read-out: IC50 del19/T790M/C797S, Km ATP
[2] = Km ATP, read-out: IC50 L858R/T790M/C797S, Km ATP
[3] = Km ATP, read-out: IC50 del19/C797S, Km ATP
[4] = Km ATP, read-out: IC50 L858R/C797S, Km ATP
[5] = Km ATP, read-out: IC50 WT, Km ATP
[6] = Km ATP, read-out: IC50 del19/T790M/C797S (nM) Km ATP
[7] = Km ATP, read-out: IC50 L858R/T790M/C797S (nM) Km ATP
[8] = Km ATP, read-out: IC50 del19/C797S (nM) Km ATP
[9] = Km ATP, read-out: IC50 L858R/C797S (nM) Km ATP
[10] = Km ATP, read-out: IC50 WT (nM) Km ATP
[11] = IC50 del19/T790M/C797S (nM) 100 μM ATP, 100 μM ATP
[12] = IC50 L858R/T790M/C797S (nM) 100 μM ATP, 100 μM ATP
[13] = IC50 del19/C797S (nM) 100 μM ATP, 100 μM ATP
[14] = IC50 L858R/C797S (nM) 100 μM ATP, 100 μM ATP
[15] = IC50 WT (nM) 100 μM ATP, 100 μM ATP

Chain of EGFR wildtype (WT) (P00533 25-1210): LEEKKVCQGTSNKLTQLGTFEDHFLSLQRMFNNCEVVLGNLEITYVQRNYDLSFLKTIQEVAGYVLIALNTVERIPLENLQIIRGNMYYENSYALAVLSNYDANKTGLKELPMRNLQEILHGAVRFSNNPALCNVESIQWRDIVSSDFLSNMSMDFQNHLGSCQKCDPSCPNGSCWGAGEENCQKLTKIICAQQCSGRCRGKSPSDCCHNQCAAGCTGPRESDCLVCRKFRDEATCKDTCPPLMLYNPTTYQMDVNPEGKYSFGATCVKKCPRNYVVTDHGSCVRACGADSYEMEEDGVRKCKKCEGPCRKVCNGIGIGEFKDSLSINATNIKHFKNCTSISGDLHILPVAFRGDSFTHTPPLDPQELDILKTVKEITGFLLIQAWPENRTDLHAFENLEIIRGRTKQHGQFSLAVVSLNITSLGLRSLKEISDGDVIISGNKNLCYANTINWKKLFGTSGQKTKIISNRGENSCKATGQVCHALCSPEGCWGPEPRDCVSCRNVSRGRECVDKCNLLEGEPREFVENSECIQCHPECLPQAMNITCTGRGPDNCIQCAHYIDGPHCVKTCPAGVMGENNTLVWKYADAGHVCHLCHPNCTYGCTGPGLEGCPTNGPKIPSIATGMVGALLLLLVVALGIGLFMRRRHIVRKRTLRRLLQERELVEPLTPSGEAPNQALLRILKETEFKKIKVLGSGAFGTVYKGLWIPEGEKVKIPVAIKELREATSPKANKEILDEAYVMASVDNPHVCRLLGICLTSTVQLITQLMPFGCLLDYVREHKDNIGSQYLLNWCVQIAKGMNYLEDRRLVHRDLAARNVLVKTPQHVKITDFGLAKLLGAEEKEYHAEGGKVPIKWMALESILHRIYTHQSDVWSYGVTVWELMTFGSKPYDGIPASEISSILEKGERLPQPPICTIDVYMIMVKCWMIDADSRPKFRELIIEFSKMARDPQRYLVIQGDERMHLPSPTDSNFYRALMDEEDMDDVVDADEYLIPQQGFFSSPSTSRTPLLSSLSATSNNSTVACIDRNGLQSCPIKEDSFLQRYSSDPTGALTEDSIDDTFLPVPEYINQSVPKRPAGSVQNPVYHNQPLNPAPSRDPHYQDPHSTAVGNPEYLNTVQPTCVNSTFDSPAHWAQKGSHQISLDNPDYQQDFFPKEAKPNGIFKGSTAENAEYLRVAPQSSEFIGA
Chain of EGFR L858R/T790M/C797S (P00533 25-1210 T790M/C797S/L858R): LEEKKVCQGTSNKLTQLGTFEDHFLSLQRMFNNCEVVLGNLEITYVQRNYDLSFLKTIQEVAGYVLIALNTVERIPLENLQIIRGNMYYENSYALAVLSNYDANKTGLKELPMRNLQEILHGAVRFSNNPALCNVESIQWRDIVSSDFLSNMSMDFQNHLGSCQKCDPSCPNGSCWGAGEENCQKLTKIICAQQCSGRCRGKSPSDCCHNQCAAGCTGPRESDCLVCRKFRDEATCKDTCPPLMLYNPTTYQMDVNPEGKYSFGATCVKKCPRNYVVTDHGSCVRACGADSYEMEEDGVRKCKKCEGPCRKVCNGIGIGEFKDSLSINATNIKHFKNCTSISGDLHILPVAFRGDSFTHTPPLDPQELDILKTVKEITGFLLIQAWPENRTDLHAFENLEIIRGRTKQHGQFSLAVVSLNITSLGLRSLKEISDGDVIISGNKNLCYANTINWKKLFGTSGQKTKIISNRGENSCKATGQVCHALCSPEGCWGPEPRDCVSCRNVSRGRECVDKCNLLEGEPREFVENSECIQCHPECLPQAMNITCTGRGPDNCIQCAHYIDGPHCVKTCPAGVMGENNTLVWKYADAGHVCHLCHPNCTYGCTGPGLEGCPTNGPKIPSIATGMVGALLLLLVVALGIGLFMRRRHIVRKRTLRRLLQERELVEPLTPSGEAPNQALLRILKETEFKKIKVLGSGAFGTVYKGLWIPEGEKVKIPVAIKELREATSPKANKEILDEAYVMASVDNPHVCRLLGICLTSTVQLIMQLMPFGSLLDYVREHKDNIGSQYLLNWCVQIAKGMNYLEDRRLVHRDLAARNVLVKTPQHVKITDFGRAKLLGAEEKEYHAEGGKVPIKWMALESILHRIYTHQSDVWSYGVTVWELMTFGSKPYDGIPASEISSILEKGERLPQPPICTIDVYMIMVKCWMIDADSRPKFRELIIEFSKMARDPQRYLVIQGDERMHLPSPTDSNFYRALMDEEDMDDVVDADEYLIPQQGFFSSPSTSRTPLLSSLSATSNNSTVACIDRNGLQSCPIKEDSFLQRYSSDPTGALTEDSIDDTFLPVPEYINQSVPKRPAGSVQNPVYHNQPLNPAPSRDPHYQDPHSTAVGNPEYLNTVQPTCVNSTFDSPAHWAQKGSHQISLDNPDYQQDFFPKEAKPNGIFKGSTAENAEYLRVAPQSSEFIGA
Chain of EGFR L858R/C797S (P00533 25-1210 C797S/L858R): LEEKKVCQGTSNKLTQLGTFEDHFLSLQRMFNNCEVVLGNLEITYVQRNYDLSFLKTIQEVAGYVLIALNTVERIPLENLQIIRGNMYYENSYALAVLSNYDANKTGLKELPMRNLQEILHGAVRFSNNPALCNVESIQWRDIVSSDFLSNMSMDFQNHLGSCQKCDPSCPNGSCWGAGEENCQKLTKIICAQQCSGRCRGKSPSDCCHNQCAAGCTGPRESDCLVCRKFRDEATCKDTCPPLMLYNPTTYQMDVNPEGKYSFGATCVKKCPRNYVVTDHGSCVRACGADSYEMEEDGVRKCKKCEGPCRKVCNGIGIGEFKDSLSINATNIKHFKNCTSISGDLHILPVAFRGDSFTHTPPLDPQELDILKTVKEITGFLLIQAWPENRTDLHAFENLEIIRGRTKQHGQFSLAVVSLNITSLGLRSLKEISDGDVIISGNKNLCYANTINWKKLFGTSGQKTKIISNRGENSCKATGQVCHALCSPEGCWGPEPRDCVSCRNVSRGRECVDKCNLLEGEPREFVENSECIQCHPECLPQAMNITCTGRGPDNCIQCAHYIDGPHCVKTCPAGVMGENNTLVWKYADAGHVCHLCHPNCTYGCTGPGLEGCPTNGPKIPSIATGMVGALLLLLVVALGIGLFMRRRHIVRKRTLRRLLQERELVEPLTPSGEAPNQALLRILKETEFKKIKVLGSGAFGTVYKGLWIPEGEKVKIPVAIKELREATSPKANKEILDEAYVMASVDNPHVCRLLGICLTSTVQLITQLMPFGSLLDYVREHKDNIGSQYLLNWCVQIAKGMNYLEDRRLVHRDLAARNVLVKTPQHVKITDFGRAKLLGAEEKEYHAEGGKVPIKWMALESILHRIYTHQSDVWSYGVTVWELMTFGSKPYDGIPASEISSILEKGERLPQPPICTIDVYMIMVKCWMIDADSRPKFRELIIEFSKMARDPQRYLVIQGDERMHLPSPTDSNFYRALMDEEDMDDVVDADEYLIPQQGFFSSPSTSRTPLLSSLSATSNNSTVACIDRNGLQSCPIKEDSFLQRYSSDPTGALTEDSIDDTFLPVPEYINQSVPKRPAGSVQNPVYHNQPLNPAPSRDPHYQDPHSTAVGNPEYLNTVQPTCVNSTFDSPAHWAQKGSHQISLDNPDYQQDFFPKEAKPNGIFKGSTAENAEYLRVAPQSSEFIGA
Chain of EGFR del19/T790M/C797S (P00533 with tags, fused parts or gaps DEL746-750/T790M/C797S): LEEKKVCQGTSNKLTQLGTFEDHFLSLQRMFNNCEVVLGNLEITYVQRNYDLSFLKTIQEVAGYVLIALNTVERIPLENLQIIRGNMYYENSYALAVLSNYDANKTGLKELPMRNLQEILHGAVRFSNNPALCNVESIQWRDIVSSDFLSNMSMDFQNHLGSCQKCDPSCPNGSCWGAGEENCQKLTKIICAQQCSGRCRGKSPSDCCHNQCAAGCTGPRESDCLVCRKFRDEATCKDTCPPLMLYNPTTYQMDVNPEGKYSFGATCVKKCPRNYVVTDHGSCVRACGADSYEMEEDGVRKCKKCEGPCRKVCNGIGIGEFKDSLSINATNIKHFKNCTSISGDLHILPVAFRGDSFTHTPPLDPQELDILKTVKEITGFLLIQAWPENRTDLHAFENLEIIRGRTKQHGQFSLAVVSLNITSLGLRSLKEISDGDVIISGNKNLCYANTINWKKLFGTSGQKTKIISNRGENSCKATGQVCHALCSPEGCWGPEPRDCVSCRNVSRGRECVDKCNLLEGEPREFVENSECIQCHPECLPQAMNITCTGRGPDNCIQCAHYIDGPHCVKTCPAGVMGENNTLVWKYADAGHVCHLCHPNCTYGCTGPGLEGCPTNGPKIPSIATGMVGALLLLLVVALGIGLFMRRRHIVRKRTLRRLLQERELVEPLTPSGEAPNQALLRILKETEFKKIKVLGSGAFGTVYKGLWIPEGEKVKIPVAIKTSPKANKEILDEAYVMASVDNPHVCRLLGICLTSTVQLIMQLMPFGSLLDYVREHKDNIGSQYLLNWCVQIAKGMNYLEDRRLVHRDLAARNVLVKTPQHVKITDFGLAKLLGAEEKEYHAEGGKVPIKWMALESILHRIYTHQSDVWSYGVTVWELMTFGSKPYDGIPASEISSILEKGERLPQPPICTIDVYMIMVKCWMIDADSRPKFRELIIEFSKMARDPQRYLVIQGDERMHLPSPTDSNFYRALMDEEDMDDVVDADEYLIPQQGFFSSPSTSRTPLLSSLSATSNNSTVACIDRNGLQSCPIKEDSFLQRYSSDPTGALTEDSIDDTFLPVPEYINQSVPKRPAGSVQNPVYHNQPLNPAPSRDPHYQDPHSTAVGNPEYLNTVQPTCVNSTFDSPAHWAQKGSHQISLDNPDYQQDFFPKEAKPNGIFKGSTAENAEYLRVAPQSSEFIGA

Structure (SMILES) | IC50 (EGFR del19/T790M/C797S; [1]) [nM] | IC50 (EGFR L858R/T790M/C797S; [2]) [nM] | IC50 (EGFR del19/C797S; [3]) [nM] | IC50 (EGFR L858R/C797S; [4]) [nM] | IC50 (EGFR wildtype (WT); [5]) [nM] | IC50 (EGFR del19/T790M/C797S; [6]) [nM] | IC50 (EGFR L858R/T790M/C797S; [7]) [nM] | IC50 (EGFR del19/C797S; [8]) [nM] | IC50 (EGFR L858R/C797S; [9]) [nM] | IC50 (EGFR wildtype (WT); [10]) [nM] | IC50 (EGFR del19/T790M/C797S; [11]) [nM] | IC50 (EGFR L858R/T790M/C797S; [12]) [nM] | IC50 (EGFR del19/C797S; [13]) [nM] | IC50 (EGFR L858R/C797S; [14]) [nM] | IC50 (EGFR wildtype (WT); [15]) [nM]
C[C@]1(O)CC[C@@H](Nc2cc(Nc3nc(-c4cnn(S(=O)(=O)C5CC5)c4)ncc3F)ncc2-c2ccn(CC(F)F)n2)CC1 [Example 345, (1s,4s)-4-((2-((2-(1-(Cyclopropylsulfonyl)-1H-pyrazol-4-yl)-5-fluoropyrimidin-4-yl)amino)-5-(1-(2,2-difluoroethyl)-1H-pyrazol-3-yl)pyridin-4-yl)amino)-1-methylcyclohexan-1-ol] | 0.4 | 0.9 | 4.6 | 0.3 | 22.2 |  |  |  |  |  |  |  |  |  | 
C[C@]1(O)CC[C@@H](Nc2cc(Nc3ccnc(-c4cnc5c(c4)NCCO5)n3)ncc2-c2ccn(C(F)F)n2)CC1 [Example 154, (1s,4s)-4-((5-(1-(Difluoromethyl)-1H-pyrazol-3-yl)-2-((2-(2,3-dihydro-1H-pyrido[2,3-b][1,4]oxazin-7-yl)pyrimidin-4-yl)amino)pyridin-4-yl)amino)-1-methylcyclohexan-1-ol] |  |  |  |  |  | 0.3 | 0.2 | 128 | 16.2 | 377 |  |  |  |  | 
Cn1ccc(-c2cnc(Nc3ccnc(-c4cnn(S(=O)(=O)C5CC5)c4)n3)cc2NC2CCC(F)(CO)CC2)n1 (centres unmarked) [Example 222, (4-((2-((2-(1-(Cyclopropylsulfonyl)-1H-pyrazol-4-yl)pyrimidin-4-yl)amino)-5-(1-methyl-1H-pyrazol-3-yl)pyridin-4-yl)amino)-1-fluorocyclohexyl)methanol] |  |  |  |  |  | 0.3 | 0.1 | 1.1 | 3.3 | 14.9 | 0.2 | 0.2 | 0.9 | 18.8 | > 10000
Cn1nc(-c2cnc(Nc3ccnc(-c4cnn(S(=O)(=O)C5CC5)c4)n3)cc2NC[C@H]2CC[C@@H](O)C2)cc1C(F)(F)F [Example 261, (1R,3S)-3-(((2-((2-(1-(Cyclopropylsulfonyl)-1H-pyrazol-4-yl)pyrimidin-4-yl)amino)-5-(1-methyl-5-(trifluoromethyl)-1H-pyrazol-3-yl)pyridin-4-yl)amino)methyl)cyclopentan-1-ol] |  |  |  |  |  | 0.1 | 0.8 | 5.8 | 5.6 | 6.4 | 1.2 | 1.4 | 77.9 | 22.7 | > 10000
Cn1nc(-c2cnc(Nc3ccnc(-c4cnn(S(=O)(=O)C5CC5)c4)n3)cc2N[C@H]2CC[C@@H](CCO)CC2)cc1C(F)(F)F [Example 262, 2-((1s,4s)-4-((2-((2-(1-(Cyclopropylsulfonyl)-1H-pyrazol-4-yl)pyrimidin-4-yl)amino)-5-(1-methyl-5-(trifluoromethyl)-1H-pyrazol-3-yl)pyridin-4-yl)amino)cyclohexyl)ethan-1-ol] |  |  |  |  |  | 0.1 | 2.1 | 4.5 | 5.7 | 8.4 | 6.6 | 7.3 | 33.4 | 5.3 | 1880
CN(CC(F)F)C(=O)[C@H]1CC[C@@H](Nc2cc(Nc3ccnc(-c4cnn(S(=O)(=O)C5CC5)c4)n3)ncc2-c2ccn(C)n2)CC1 [Example 235, (1s,4s)-4-((2-((2-(1-(Cyclopropylsulfonyl)-1H-pyrazol-4-yl)pyrimidin-4-yl)amino)-5-(1-methyl-1H-pyrazol-3-yl)pyridin-4-yl)amino)-N-(2,2-difluoroethyl)-N-methylcyclohexane-1-carboxamide] |  |  |  |  |  | 0.2 | 0.1 | 2.5 | 0.3 | 1.6 | 0.2 | 0.2 | 1.1 | 7 | 616
CN(CC(F)F)C[C@H]1CC[C@@H](Nc2cc(Nc3ccnc(-c4cnn(S(=O)(=O)C5CC5)c4)n3)ncc2-c2cc(C(F)(F)F)n(C)n2)CC1 [Example 259, N^2-(2-(1-(Cyclopropylsulfonyl)-1H-pyrazol-4-yl)pyrimidin-4-yl)-N^4-((1s,4s)-4-(((2,2-difluoroethyl)(methyl)amino)methyl)cyclohexyl)-5-(1-methyl-5-(trifluoromethyl)-1H-pyrazol-3-yl)pyridine-2,4-diamine] |  |  |  |  |  |  |  |  |  |  | 172 | 63.9 | 151 | 819 | > 10000
CN1CCC(n2ccc(-c3cnc(Nc4ccnc(-c5cnn(CC(F)F)c5)n4)cc3N[C@H]3CC[C@@](C)(O)CC3)n2)CC1 [Example 342, (1s,4s)-4-((2-((2-(1-(2,2-Difluoroethyl)-1H-pyrazol-4-yl)pyrimidin-4-yl)amino)-5-(1-(1-methylpiperidin-4-yl)-1H-pyrazol-3-yl)pyridin-4-yl)amino)-1-methylcyclohexan-1-ol] | 0.2 | 0.1 | 1.8 | 1.3 | 2.7 |  |  |  |  |  |  |  |  |  | 
Cn1ccc(-c2cnc(Nc3ccnc(-c4cnn(S(=O)(=O)C5CC5)c4)n3)cc2N[C@H]2CC[C@@H](NCCF)CC2)n1 [Example 43, N^2-(2-(1-(Cyclopropylsulfonyl)-1H-pyrazol-4-yl)pyrimidin-4-yl)-N^4-((1s,4s)-4-((2-fluoroethyl)amino)cyclohexyl)-5-(1-methyl-1H-pyrazol-3-yl)pyridine-2,4-diamine] |  |  |  |  |  | 0.2 | 0.1 | 0.7 | 0.4 | 4.9 | 0.3 | 0.3 |  | 14.7 | 5240
Cc1nn(C)c(F)c1-c1nccc(Nc2cc(N[C@H]3CC[C@@](C)(O)CC3)c(-c3ccn(C(F)F)n3)cn2)n1 [Example 319, (1s,4s)-4-((5-(1-(Difluoromethyl)-1H-pyrazol-3-yl)-2-((2-(5-fluoro-1,3-dimethyl-1H-pyrazol-4-yl)pyrimidin-4-yl)amino)pyridin-4-yl)amino)-1-methylcyclohexan-1-ol] |  |  |  |  |  | 0.4 | 0.3 | 47.3 | 16.9 | 184 |  |  |  |  | 
C[C@]1(O)CC[C@@H](Nc2cc(Nc3ccnc(-c4ccc(F)nc4F)n3)ncc2-c2ccn(C(F)F)n2)CC1 [Example 170, (1s,4s)-4-((5-(1-(Difluoromethyl)-1H-pyrazol-3-yl)-2-((2-(2,6-difluoropyridin-3-yl)pyrimidin-4-yl)amino)pyridin-4-yl)amino)-1-methylcyclohexan-1-ol] |  |  |  |  |  | 49.7 | 16.9 | 1340 | 814 | 1980 |  |  |  |  | 
C[C@]1(O)CC[C@@H](Nc2cc(Nc3ccnc(-c4cnn(CC5CC5)c4)n3)ncc2-c2ccn(C(F)F)n2)CC1 [Example 141, (1s,4s)-4-((2-((2-(1-(Cyclopropylmethyl)-1H-pyrazol-4-yl)pyrimidin-4-yl)amino)-5-(1-(difluoromethyl)-1H-pyrazol-3-yl)pyridin-4-yl)amino)-1-methylcyclohexan-1-ol] |  |  |  |  |  |  |  |  |  |  | 15.8 | 3.2 | 111 | 198 | > 10000
CN(C)CCNC1CCC(Nc2cc(Nc3ccnc(-c4cnn(S(=O)(=O)C5CC5)c4)n3)ncc2-c2csc(C(F)(F)F)n2)CC1 (centres unmarked) [Example 98, N^2-(2-(1-(Cyclopropylsulfonyl)-1H-pyrazol-4-yl)pyrimidin-4-yl)-N^4-(4-((2-(dimethylamino)ethyl)amino)cyclohexyl)-5-(2-(trifluoromethyl)thiazol-4-yl)pyridine-2,4-diamine] |  |  |  |  |  |  |  |  |  |  | 0.7 | 2.7 | 1.9 | 7.7 | 1410

From patent US12258327B2, “5-membered heteroaryl-containing aminopyridine compounds as EGFR inhibitors” (YUHAN CORPORATION, priority 2021, dated 2025)
